In ChEMBL document CHEMBL1201862, “PubChem BioAssay data set” (2004):
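1) Cells in 96-well plates. 2) Compound, 48 h, 5 concentrations. 3) Linear interpolation between surrounding doses. 4) Unreached endpoint = highest concentration. The concentration for 50% growth inhibition is given as GI50.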 Active and inactive are the calls of the source. No stated cut-off is given here; in the data, active = GI50 up to about 1.1 µM and inactive = higher.

Tests used:
Experiment in all cases: DTP human tumour cell line panel, 48 h
A498 = test system: A498
A549 = test system: A549
BT-549 = test system: BT-549
CAKI-1 = test system: CAKI-1
CCRF-CEM = test system: CCRF-CEM
DU-145 = test system: DU-145
HCT-15 = test system: HCT-15
HOP-62 = test system: HOP-62
HOP-92 = test system: HOP-92
MDA-N = test system: MDA-N
OVCAR-3 = test system: OVCAR-3
OVCAR-4 = test system: OVCAR-4
OVCAR-5 = test system: OVCAR-5
PC-3 = test system: PC-3
SK-MEL-28 = test system: SK-MEL-28
SNB-19 = test system: SNB-19
SNB-75 = test system: SNB-75
SR = test system: SR
SW-620 = test system: SW-620

Row | Structure (SMILES) | GI50 (A498) | GI50 (A549) | GI50 (BT-549) | GI50 (CAKI-1) | GI50 (CCRF-CEM) | GI50 (DU-145) | GI50 (HCT-15) | GI50 (HOP-62) | GI50 (HOP-92) | GI50 (MDA-N) | GI50 (OVCAR-3) | GI50 (OVCAR-4) | GI50 (OVCAR-5) | GI50 (PC-3) | GI50 (SK-MEL-28) | GI50 (SNB-19) | GI50 (SNB-75) | GI50 (SR) | GI50 (SW-620)
1 | O=C(O)C[S+]([O-])c1ccc2c3c(cccc13)C(=O)c1ccccc1-2 (configuration not stated) | > 100 µM (inactive) | > 100 µM (inactive) | > 100 µM (inactive) | > 100 µM (inactive) | > 100 µM (inactive) | > 100 µM (inactive) | > 100 µM | > 100 µM (inactive) | > 100 µM (inactive) | > 100 µM (inactive) | > 100 µM (inactive) | > 100 µM (inactive) | > 100 µM (inactive) | > 100 µM (inactive) | > 100 µM (inactive) | > 100 µM (inactive) | > 100 µM (inactive) | > 100 µM (inactive) | > 100 µM (inactive)
2 | O=C(O)/C=C\C(=O)Nc1ccc2c(c1)-c1ccccc1C2 | 94.6 µM (inactive) | > 100 µM (inactive) | 39.8 µM (inactive) | > 100 µM (inactive) | 56.8 µM (inactive) | 80.2 µM (inactive) | 44.7 µM | 81.3 µM (inactive) | 44.6 µM (inactive) | > 100 µM (inactive) | 30.8 µM (inactive) | > 100 µM (inactive) | > 100 µM (inactive) | 69.2 µM (inactive) | > 100 µM (inactive) | 42.3 µM (inactive) | > 100 µM (inactive) | 44.9 µM (inactive) | > 100 µM (inactive)
3 | CCCCCCCCCCCC1NC(N)=NC(CCCO)=C1C(=O)OC (configuration not stated) | 14.6 µM (inactive) | 5.92 µM (inactive) | 4.67 µM (inactive) | 7.06 µM (inactive) | 1.59 µM (inactive) | 9.35 µM (inactive) | 8.22 µM | 2.82 µM (inactive) | 3.54 µM (inactive) | 2.44 µM (inactive) | 2.37 µM (inactive) | 2.97 µM (inactive) | 6.62 µM (inactive) | 1.1 µM (active) | – | 1.83 µM (inactive) | 2.79 µM (inactive) | 3.33 µM (inactive) | 1.61 µM (inactive)
4 | NC(=O)C(C(N)=O)=C(O)/C(O)=C/C(=O)c1ccccc1 | > 100 µM (inactive) | > 100 µM (inactive) | 48.5 µM (inactive) | > 100 µM (inactive) | 21.5 µM (inactive) | > 100 µM (inactive) | > 100 µM | > 100 µM (inactive) | > 100 µM (inactive) | > 100 µM (inactive) | 51.4 µM (inactive) | > 100 µM (inactive) | > 100 µM (inactive) | > 100 µM (inactive) | > 100 µM (inactive) | > 100 µM (inactive) | > 100 µM (inactive) | 1.99 µM (inactive) | 81.1 µM (inactive)
5 | O=C(O)C1CC(C2CCCCN2)CN2CCCCC12 (configuration not stated) | > 100 µM (inactive) | > 100 µM (inactive) | > 100 µM (inactive) | > 100 µM (inactive) | > 100 µM (inactive) | > 100 µM (inactive) | > 100 µM | > 100 µM (inactive) | > 100 µM (inactive) | > 100 µM (inactive) | > 100 µM (inactive) | > 100 µM (inactive) | > 100 µM (inactive) | > 100 µM (inactive) | > 100 µM (inactive) | > 100 µM (inactive) | > 100 µM (inactive) | > 100 µM (inactive) | > 100 µM (inactive)
6 | Cc1cc2c(cc1C)N1C(Cl)=C3CCCCC3=C(C#N)C1N2 (configuration not stated) | 19.1 µM (inactive) | 19.9 µM (inactive) | 2.45 µM (inactive) | 5.04 µM (inactive) | 2.48 µM (inactive) | 19.3 µM (inactive) | 2.61 µM | 14.3 µM (inactive) | 7.4 µM (inactive) | 4.15 µM (inactive) | 16.7 µM (inactive) | 12.3 µM (inactive) | 21.1 µM (inactive) | 13.6 µM (inactive) | 3.3 µM (inactive) | 20.2 µM (inactive) | 23.6 µM (inactive) | 3.65 µM (inactive) | 2.02 µM (inactive)
7 | C=C(Cl)/C(=C\Cl)CCC(Br)C(C)C (configuration not stated) | > 100 µM (inactive) | > 100 µM (inactive) | > 100 µM (inactive) | > 100 µM (inactive) | 44.5 µM (inactive) | > 100 µM (inactive) | – | > 100 µM (inactive) | > 100 µM (inactive) | 41 µM (inactive) | > 100 µM (inactive) | 29.2 µM (inactive) | > 100 µM (inactive) | > 100 µM (inactive) | 78.5 µM (inactive) | > 100 µM (inactive) | > 100 µM (inactive) | > 100 µM (inactive) | 19.5 µM (inactive)
8 | CN1C(=O)c2ccccc2NC(=O)C12O[C@@H]2c1ccccc1 (some centres not stated) | > 100 µM (inactive) | > 100 µM (inactive) | > 100 µM (inactive) | 75.2 µM (inactive) | > 100 µM (inactive) | > 100 µM (inactive) | > 10 µM | > 100 µM (inactive) | > 100 µM (inactive) | > 100 µM (inactive) | > 100 µM (inactive) | > 100 µM (inactive) | > 100 µM (inactive) | > 100 µM (inactive) | > 100 µM (inactive) | > 10 µM (inactive) | 62.8 µM (inactive) | > 100 µM (inactive) | > 100 µM (inactive)
9 | C=CCc1cccc2cc(C(=O)Nc3nc(C45CC6CC(CC(C6)C4)C5)cs3)c(=O)oc12 | 25.2 µM (inactive) | 49.9 µM (inactive) | 70 µM (inactive) | 20.6 µM (inactive) | 64.3 µM (inactive) | 44.6 µM (inactive) | 67 µM | 17.8 µM (inactive) | 16 µM (inactive) | 45 µM (inactive) | 24.4 µM (inactive) | 21 µM (inactive) | > 100 µM (inactive) | 29.6 µM (inactive) | 61.8 µM (inactive) | 26.1 µM (inactive) | 24.2 µM (inactive) | 28.9 µM (inactive) | 31.7 µM (inactive)
10 | COc1cc2cc(C(=O)N3CC(CCl)c4ccc(NCCN)cc43)[nH]c2c(OC)c1OC (configuration not stated) | 0.184 µM (active) | 0.208 µM (active) | 0.345 µM (active) | 0.143 µM (active) | 0.0783 µM (active) | 0.08 µM (active) | 0.377 µM | 0.166 µM (active) | 0.289 µM (active) | 0.176 µM (active) | 0.236 µM (active) | 0.263 µM (active) | 0.337 µM (active) | 0.117 µM (active) | 0.249 µM (active) | 0.292 µM (active) | 0.232 µM (active) | 0.0279 µM (active) | 0.151 µM (active)
11 | CCOC(=O)Nc1nn(C)/c(=N/Cc2ccccc2)s1 | > 100 µM (inactive) | > 100 µM (inactive) | 85.1 µM (inactive) | > 100 µM (inactive) | > 100 µM (inactive) | > 100 µM (inactive) | > 100 µM | > 100 µM (inactive) | > 100 µM (inactive) | > 100 µM (inactive) | > 100 µM (inactive) | > 100 µM (inactive) | > 100 µM (inactive) | > 100 µM (inactive) | > 100 µM (inactive) | > 100 µM (inactive) | > 100 µM (inactive) | > 100 µM (inactive) | > 100 µM (inactive)
12 | C=CC(C)(C)N[C@@H](C(=O)N1CCC[C@H]1c1nc(-c2nc(C(=O)OCC=C(C)C)c(C)o2)c(C)o1)C(C)C | 19.7 µM (inactive) | 29.9 µM (inactive) | 23.6 µM (inactive) | 35.5 µM (inactive) | 11.7 µM (inactive) | 17.2 µM (inactive) | 22 µM | 21.6 µM (inactive) | 17.5 µM (inactive) | 18 µM (inactive) | 23.1 µM (inactive) | 22.8 µM (inactive) | 35.9 µM (inactive) | 25.5 µM (inactive) | 18.5 µM (inactive) | 19.7 µM (inactive) | 33.8 µM (inactive) | 18.1 µM (inactive) | 22.3 µM (inactive)
13 | O=C1NCC(CSc2nc3cc(C4CCCc5c4[nH]c4ccccc54)ccc3o2)N1 (configuration not stated) | 18 µM (inactive) | 22.5 µM (inactive) | 47.1 µM (inactive) | 41.5 µM (inactive) | 35.2 µM (inactive) | 56 µM (inactive) | 24.5 µM | > 100 µM (inactive) | 21.2 µM (inactive) | 42.8 µM (inactive) | 44.1 µM (inactive) | 32.2 µM (inactive) | 61.8 µM (inactive) | 37.2 µM (inactive) | 80.2 µM (inactive) | 53.7 µM (inactive) | > 100 µM (inactive) | 14.7 µM (inactive) | 39.4 µM (inactive)
14 | CCCCCCCCCCCC(=O)N(CCCCCCCCCCC(=O)O)CC(O)C(O)C(OC1OC(CO)C(O)C(O)C1O)C(O)CO (configuration not stated) | > 100 µM (inactive) | > 100 µM (inactive) | > 100 µM (inactive) | > 100 µM (inactive) | > 100 µM (inactive) | > 100 µM (inactive) | > 100 µM | > 100 µM (inactive) | > 100 µM (inactive) | > 100 µM (inactive) | > 100 µM (inactive) | > 100 µM (inactive) | > 100 µM (inactive) | > 100 µM (inactive) | > 100 µM (inactive) | > 100 µM (inactive) | > 100 µM (inactive) | > 100 µM (inactive) | > 100 µM (inactive)
15 | O=S(=O)(O)c1ccc2c(/N=N/c3ccc(S(=O)(=O)O)c4ccccc34)c(O)c(S(=O)(=O)O)cc2c1 | > 100 µM (inactive) | – | > 100 µM (inactive) | > 100 µM (inactive) | > 100 µM (inactive) | > 100 µM (inactive) | > 100 µM | > 100 µM (inactive) | > 100 µM (inactive) | > 100 µM (inactive) | > 100 µM (inactive) | > 100 µM (inactive) | > 100 µM (inactive) | > 100 µM (inactive) | > 100 µM (inactive) | > 100 µM (inactive) | > 100 µM (inactive) | > 100 µM (inactive) | > 100 µM (inactive)
